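Briefly, cells in 96-well plates were exposed to five compound concentrations for 48 h, and endpoints were estimated by linear interpolation. GI50 is the concentration that inhibits growth by half. TGI denotes the concentration required for complete inhibition of growth.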
What was measured:
Assay in all cases: growth of human tumour cells (NCI), 48 h
SR leukemia = test system: SR leukemia
MDA-MB-435 = test system: MDA-MB-435
COLO 205 colon = test system: COLO 205 colon
DU-145 prostate = test system: DU-145 prostate
RXF 393 renal = test system: RXF 393 renal
HCT-116 colon = test system: HCT-116 colon
ACHN renal = test system: ACHN renal
NCI-H522 lung = test system: NCI-H522 lung
SK-MEL-2 melanoma = test system: SK-MEL-2 melanoma
SK-MEL-28 melanoma = test system: SK-MEL-28 melanoma
OVCAR-8 ovarian = test system: OVCAR-8 ovarian
UACC-257 melanoma = test system: UACC-257 melanoma
PC-3 prostate = test system: PC-3 prostate
T-47D breast = test system: T-47D breast
SK-OV-3 ovarian = test system: SK-OV-3 ovarian
786-0 renal = test system: 786-0 renal
HOP-62 NSCLC = test system: HOP-62 NSCLC
OVCAR-4 ovarian = test system: OVCAR-4 ovarian
OVCAR-3 ovarian = test system: OVCAR-3 ovarian
BT-549 breast = test system: BT-549 breast
SN12C renal = test system: SN12C renal
TK-10 renal = test system: TK-10 renal
CAKI-1 renal = test system: CAKI-1 renal
HCT-15 colon = test system: HCT-15 colon
MALME-3M melanoma = test system: MALME-3M melanoma
LOX IMVI melanoma = test system: LOX IMVI melanoma
A549 NSCLC = test system: A549 NSCLC
HCC-2998 colon = test system: HCC-2998 colon
HL-60(TB) leukemia = test system: HL-60(TB) leukemia
MCF7 breast = test system: MCF7 breast
NCI-H23 lung = test system: NCI-H23 lung
SW-620 colon = test system: SW-620 colon
MDA-MB-231 breast = test system: MDA-MB-231 breast
HT29 colon = test system: HT29 colon
NCI-H226 lung = test system: NCI-H226 lung
EKVX NSCLC = test system: EKVX NSCLC
HOP-92 NSCLC = test system: HOP-92 NSCLC
KM12 colon = test system: KM12 colon
SK-MEL-5 melanoma = test system: SK-MEL-5 melanoma
MOLT-4 leukemia = test system: MOLT-4 leukemia
HS 578T breast = test system: HS 578T breast
SNB-19 CNS = test system: SNB-19 CNS
NCI-H460 lung = test system: NCI-H460 lung
SF-268 CNS = test system: SF-268 CNS
M14 melanoma = test system: M14 melanoma
OVCAR-5 ovarian = test system: OVCAR-5 ovarian
CCRF-CEM leukemia = test system: CCRF-CEM leukemia
U251 CNS = test system: U251 CNS
SF-539 CNS = test system: SF-539 CNS
SF-295 CNS = test system: SF-295 CNS
IGROV1 ovarian = test system: IGROV1 ovarian
K-562 leukemia = test system: K-562 leukemia
MDA-MB-468 breast = test system: MDA-MB-468 breast
UACC-62 melanoma = test system: UACC-62 melanoma
UO-31 renal = test system: UO-31 renal
A498 renal = test system: A498 renal

CN(C)c1nc(NCCNS(=O)(=O)c2ccc(C(=O)/C=C/c3ccc(Cl)cc3)cc2)nc(N2CCOCC2)n1
GI50 (SR leukemia): 2.52 µM
TGI (SR leukemia): > 100 µM
GI50 (MDA-MB-435): 12.8 µM
TGI (MDA-MB-435): 26.6 µM
GI50 (COLO 205 colon): 16.7 µM
TGI (COLO 205 colon): 34.3 µM
GI50 (DU-145 prostate): 17.2 µM
TGI (DU-145 prostate): 34 µM
GI50 (RXF 393 renal): 12.8 µM
TGI (RXF 393 renal): 27 µM
GI50 (HCT-116 colon): 11.7 µM
TGI (HCT-116 colon): 24.3 µM
GI50 (ACHN renal): 13.5 µM
TGI (ACHN renal): 26.3 µM
GI50 (NCI-H522 lung): 14 µM
TGI (NCI-H522 lung): 27.3 µM
GI50 (SK-MEL-2 melanoma): 16.6 µM
TGI (SK-MEL-2 melanoma): 30.4 µM
GI50 (SK-MEL-28 melanoma): 15.5 µM
TGI (SK-MEL-28 melanoma): 28.9 µM
GI50 (OVCAR-8 ovarian): 14.8 µM
TGI (OVCAR-8 ovarian): 28.4 µM
GI50 (UACC-257 melanoma): 16.2 µM
TGI (UACC-257 melanoma): 30 µM
GI50 (PC-3 prostate): 13 µM
TGI (PC-3 prostate): 29.6 µM
GI50 (T-47D breast): 16.7 µM
TGI (T-47D breast): 42.2 µM
GI50 (SK-OV-3 ovarian): 15.3 µM
TGI (SK-OV-3 ovarian): 30.2 µM
GI50 (786-0 renal): 14.8 µM
TGI (786-0 renal): 28.8 µM
GI50 (HOP-62 NSCLC): 17.5 µM
TGI (HOP-62 NSCLC): 34 µM
GI50 (OVCAR-4 ovarian): 14.7 µM
TGI (OVCAR-4 ovarian): 29 µM
GI50 (OVCAR-3 ovarian): 17.9 µM
TGI (OVCAR-3 ovarian): 35.5 µM
GI50 (BT-549 breast): 15.3 µM
TGI (BT-549 breast): 29.3 µM
GI50 (SN12C renal): 14.4 µM
TGI (SN12C renal): 27.8 µM
GI50 (TK-10 renal): 15.8 µM
TGI (TK-10 renal): 29.4 µM
GI50 (CAKI-1 renal): 11.2 µM
TGI (CAKI-1 renal): 24.7 µM
GI50 (HCT-15 colon): 2.07 µM
TGI (HCT-15 colon): 4.54 µM
GI50 (MALME-3M melanoma): 15.1 µM
TGI (MALME-3M melanoma): 28.6 µM
GI50 (LOX IMVI melanoma): 1.71 µM
TGI (LOX IMVI melanoma): 3.24 µM
GI50 (A549 NSCLC): 14.4 µM
TGI (A549 NSCLC): 28.5 µM
GI50 (HCC-2998 colon): 16.7 µM
TGI (HCC-2998 colon): 30.8 µM
GI50 (HL-60(TB) leukemia): 14.7 µM
TGI (HL-60(TB) leukemia): 95.1 µM
GI50 (MCF7 breast): 2.37 µM
TGI (MCF7 breast): 6.39 µM
GI50 (NCI-H23 lung): 15.7 µM
TGI (NCI-H23 lung): 29.5 µM
GI50 (SW-620 colon): 8.46 µM
TGI (SW-620 colon): 21.7 µM
GI50 (MDA-MB-231 breast): 13.3 µM
TGI (MDA-MB-231 breast): 26.5 µM
GI50 (HT29 colon): 3.21 µM
TGI (HT29 colon): 10.4 µM
GI50 (NCI-H226 lung): 15.7 µM
TGI (NCI-H226 lung): 34 µM
GI50 (EKVX NSCLC): 14.8 µM
TGI (EKVX NSCLC): 28.7 µM
GI50 (HOP-92 NSCLC): 15.1 µM
TGI (HOP-92 NSCLC): 32 µM
GI50 (KM12 colon): 16.9 µM
TGI (KM12 colon): 41.4 µM
GI50 (SK-MEL-5 melanoma): 16.3 µM
TGI (SK-MEL-5 melanoma): 30.1 µM
GI50 (MOLT-4 leukemia): 3.38 µM
TGI (MOLT-4 leukemia): 80.3 µM
GI50 (HS 578T breast): 15.8 µM
TGI (HS 578T breast): 60.5 µM
GI50 (SNB-19 CNS): 14.2 µM
TGI (SNB-19 CNS): 27.2 µM
GI50 (NCI-H460 lung): 16.8 µM
TGI (NCI-H460 lung): 33.6 µM
GI50 (SF-268 CNS): 17.7 µM
TGI (SF-268 CNS): 43.8 µM
GI50 (M14 melanoma): 14.1 µM
TGI (M14 melanoma): 28.3 µM
GI50 (OVCAR-5 ovarian): 15 µM
TGI (OVCAR-5 ovarian): 28.4 µM
GI50 (CCRF-CEM leukemia): 6.86 µM
TGI (CCRF-CEM leukemia): > 100 µM
GI50 (U251 CNS): 8.17 µM
TGI (U251 CNS): 20.7 µM
GI50 (SF-539 CNS): 14.7 µM
TGI (SF-539 CNS): 27.9 µM
GI50 (SF-295 CNS): 13.3 µM
TGI (SF-295 CNS): 26.4 µM
GI50 (IGROV1 ovarian): 3.08 µM
TGI (IGROV1 ovarian): 11 µM
GI50 (K-562 leukemia): 3.71 µM
TGI (K-562 leukemia): > 100 µM
GI50 (MDA-MB-468 breast): 11 µM
TGI (MDA-MB-468 breast): 24.9 µM
GI50 (UACC-62 melanoma): 11.4 µM
TGI (UACC-62 melanoma): 23.7 µM
GI50 (UO-31 renal): 11.4 µM
TGI (UO-31 renal): 23.5 µM
GI50 (A498 renal): 12.4 µM
TGI (A498 renal): 25.1 µM
